Test system: NCI-H1417 complex spheroids, growth % test/control
Experiment: Anticancer human tumor NCI-H1417 cell line growth inhibition [Asc];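 note: spheroids exposed to compounds for 7 days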;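 for viability, T/C: 100% = DMSO vehicle control wells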
Conditions: for IC50: curve of first compound; for viability, T/C: stronger effect = lower value
Outline: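 Concentration series start at each agent's clinical Cmax, or at 10 microM when none is established, and drop in half-log steps; agents are applied alone or together to complex spheroids built with HUVEC and hMSC.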

C=CC(=O)N1CCN(c2nc(=O)n(-c3c(C)ccnc3C(C)C)c3nc(-c4c(O)cccc4F)c(F)cc23)C(C)C1 (stereo not given) + Cc1c(S(C)(=O)=O)c(-c2cc(F)cc(N3CCN(c4ccc(NS(=O)(=O)c5ccc(NC(CCN6CCC(C(=O)OCCCP(=O)(O)O)CC6)CSc6ccccc6)c(S(=O)(=O)C(F)(F)F)c5)cc4)CC3)c2)c(-c2ccc(Cl)cc2)n1C(C)C
IC50 (second compound 0.1 µM): > 10 µM
IC50 (second compound 0.316 µM): 3.96 µM
IC50 (second compound 1 µM): < 0.0316 µM
IC50 (second compound 3.16 µM): < 0.0316 µM
IC50 (second compound 10 µM): < 0.0316 µM
viability, T/C (second compound 0.1 µM, first compound 0.0316 µM): 79.9%
viability, T/C (second compound 0.1 µM, first compound 0.1 µM): 97.7%
viability, T/C (second compound 0.1 µM, first compound 0.316 µM): 94%
viability, T/C (second compound 0.1 µM, first compound 1 µM): 88.7%
viability, T/C (second compound 0.1 µM, first compound 3.16 µM): 79.5%
viability, T/C (second compound 0.1 µM, first compound 10 µM): 76.5%
viability, T/C (second compound 0.316 µM, first compound 0.0316 µM): 50.7%
viability, T/C (second compound 0.316 µM, first compound 0.1 µM): 52.8%
viability, T/C (second compound 0.316 µM, first compound 0.316 µM): 59.2%
viability, T/C (second compound 0.316 µM, first compound 1 µM): 55.8%
viability, T/C (second compound 0.316 µM, first compound 3.16 µM): 60.4%
viability, T/C (second compound 0.316 µM, first compound 10 µM): 26.5%
viability, T/C (second compound 1 µM, first compound 0.0316 µM): 12.8%
viability, T/C (second compound 1 µM, first compound 0.1 µM): 19%
viability, T/C (second compound 1 µM, first compound 0.316 µM): 19.2%
viability, T/C (second compound 1 µM, first compound 1 µM): 27.2%
viability, T/C (second compound 1 µM, first compound 3.16 µM): 15.7%
viability, T/C (second compound 1 µM, first compound 10 µM): 6.31%
viability, T/C (second compound 3.16 µM, first compound 0.0316 µM): 3.89%
viability, T/C (second compound 3.16 µM, first compound 0.1 µM): 4.22%
viability, T/C (second compound 3.16 µM, first compound 0.316 µM): 4.64%
viability, T/C (second compound 3.16 µM, first compound 1 µM): 3.72%
viability, T/C (second compound 3.16 µM, first compound 3.16 µM): 3.98%
viability, T/C (second compound 3.16 µM, first compound 10 µM): 3.94%
viability, T/C (second compound 10 µM, first compound 0.0316 µM): 2.86%
viability, T/C (second compound 10 µM, first compound 0.1 µM): 2.89%
viability, T/C (second compound 10 µM, first compound 0.316 µM): 3.43%
viability, T/C (second compound 10 µM, first compound 1 µM): 2.4%
viability, T/C (second compound 10 µM, first compound 3.16 µM): 3.1%
viability, T/C (second compound 10 µM, first compound 10 µM): 3.85%

C=C(F)C(=O)N1CCN(c2nc(OCC3CCCN3C)nc3c2CCN(c2cccc4cccc(Cl)c24)C3)CC1CC#N (stereo not given) + CCN1C(C(=O)NC23CCC(C(=O)O)(CC2)CC3)C(c2cccc(Cl)c2F)C2(C(=O)Nc3cc(Cl)ccc32)C12CCCCC2
IC50 (second compound 0.03 µM): 3.58 µM
IC50 (second compound 0.0949 µM): 3.25 µM
IC50 (second compound 0.3 µM): 3.33 µM
IC50 (second compound 0.949 µM): 2.77 µM
IC50 (second compound 3 µM): 2.25 µM
viability, T/C (second compound 0.03 µM, first compound 0.0316 µM): 107%
viability, T/C (second compound 0.03 µM, first compound 0.1 µM): 111%
viability, T/C (second compound 0.03 µM, first compound 0.316 µM): 102%
viability, T/C (second compound 0.03 µM, first compound 1 µM): 95.4%
viability, T/C (second compound 0.03 µM, first compound 3.16 µM): 55.8%
viability, T/C (second compound 0.03 µM, first compound 10 µM): 0.19%
viability, T/C (second compound 0.0949 µM, first compound 0.0316 µM): 97.9%
viability, T/C (second compound 0.0949 µM, first compound 0.1 µM): 93.6%
viability, T/C (second compound 0.0949 µM, first compound 0.316 µM): 100%
viability, T/C (second compound 0.0949 µM, first compound 1 µM): 91%
viability, T/C (second compound 0.0949 µM, first compound 3.16 µM): 51.3%
viability, T/C (second compound 0.0949 µM, first compound 10 µM): 0.19%
viability, T/C (second compound 0.3 µM, first compound 0.0316 µM): 103%
viability, T/C (second compound 0.3 µM, first compound 0.1 µM): 98.5%
viability, T/C (second compound 0.3 µM, first compound 0.316 µM): 97.4%
viability, T/C (second compound 0.3 µM, first compound 1 µM): 87%
viability, T/C (second compound 0.3 µM, first compound 3.16 µM): 52.3%
viability, T/C (second compound 0.3 µM, first compound 10 µM): 0.17%
viability, T/C (second compound 0.949 µM, first compound 0.0316 µM): 100%
viability, T/C (second compound 0.949 µM, first compound 0.1 µM): 102%
viability, T/C (second compound 0.949 µM, first compound 0.316 µM): 85.5%
viability, T/C (second compound 0.949 µM, first compound 1 µM): 82.4%
viability, T/C (second compound 0.949 µM, first compound 3.16 µM): 44.9%
viability, T/C (second compound 0.949 µM, first compound 10 µM): 0.19%
viability, T/C (second compound 3 µM, first compound 0.0316 µM): 93.3%
viability, T/C (second compound 3 µM, first compound 0.1 µM): 89.9%
viability, T/C (second compound 3 µM, first compound 0.316 µM): 86.1%
viability, T/C (second compound 3 µM, first compound 1 µM): 79.1%
viability, T/C (second compound 3 µM, first compound 3.16 µM): 37.8%
viability, T/C (second compound 3 µM, first compound 10 µM): 0.4%

Source: PubChem BioAssay AID1963440 (Molecular Pharmacology Branch, DTP, NCI, 2024)
